Patent publication EP0187355A1, “Process for preparing beta-lactam antibiotics” (E.R. Squibb & Sons, Inc., priority 1981, dated 1982)
Counter-ions that a name gives are not always drawn.

What was measured:
Assay in all cases: MIC, agar dilution
Assay type in all cases: cell-based
Micrococcus luteus, 2495 = settings: K-10 agar, 10^4 CFU, 37°C; for MIC: Micrococcus luteus, 2495, 18 h, read-out: M.I.C.
Outline: (§1)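 Broth cultures grown 18-20 h at 37°C, diluted 1:100 in K-10 broth, applied by multipoint inoculator at 10^4 CFU onto K-10 agar holding twofold compound dilutions, 100 to 0.05 µg/ml final. MIC taken as lowest concentration inhibiting growth.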

[1] = system: Enterobacter cloacae, 8236; settings: K-10 agar, 10^4 CFU, 37°C; for MIC: Enterobacter cloacae, 8236, 18 h
Outline: as §1

[2] = system: Streptococcus agalactiae, 9287; settings: K-10 agar, 10^4 CFU, 37°C; for MIC: Streptococcus agalactiae, 9287, 18 h, read-out: M.I.C.
Outline: as §1

[3] = system: Pseudomonas aeruginosa, 8329; settings: K-10 agar, 10^4 CFU, 37°C, 18 hours; for MIC: read-out: M.I.C.
Outline: (§2)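 Agar dilution in K-10 agar; final drug 100–0.05 µg/ml, twofold steps. Inoculum 10^4 CFU/spot via multipoint inoculator from 18–20 h broth culture diluted 1:100. Incubation 37°C, 18 h; MIC = lowest concentration with no growth.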

Salmonella typhosa, 1195 = settings: K-10 agar, 10^4 CFU, 37°C; for MIC: Salmonella enterica, TYPHOSA, 18 h
Outline: as §2

[4] = system: Staphylococcus aureus, 2400; settings: Staphylococcus aureus, 2400, K-10 agar, 10^4 CFU, 37°C, 18 hours; for MIC: read-out: M.I.C.
Outline: as §2

[5] = system: Acinetobacter calcoaceticus, 8333; settings: K-10 agar, 10^4 CFU, 37°C; for MIC: Acinetobacter calcoaceticus, 8333, 18 h, read-out: M.I.C.
Outline: as §2

[6] = system: Staphylococcus aureus, 10165; settings: Staphylococcus aureus, 10165, K-10 agar, 10^4 CFU, 37°C, 18 hours; for MIC: read-out: M.I.C.
Outline: as §2

[7] = system: Serratia marcescens, 9783; settings: K-10 agar, 10^4 CFU, 37°C; for MIC: Serratia marcescens, 9783, 18 h, read-out: M.I.C.
Outline: as §2

Proteus mirabilis, 3855 = settings: K-10 agar, 10^4 CFU, 37°C; for MIC: Proteus mirabilis, 3855, 18 h, read-out: M.I.C.
Outline: as §2

[8] = system: Klebsiella aerogenes, 10440; settings: K-10 agar, 10^4 CFU, 37°C, 18 hours; for MIC: read-out: M.I.C.
Outline: as §2

[9] = system: Streptococcus faecalis, 9011; settings: Streptococcus faecalis, 9011, K-10 agar, 10^4 CFU, 37°C, 18 hours; for MIC: Enterococcus faecalis, read-out: M.I.C.
Outline: as §2

[10] = system: Citrobacter freundii, 9518; settings: K-10 agar, 10^4 CFU, 37°C, 18 hours; for MIC: read-out: M.I.C.
Outline: as §2

Escherichia coli, 10857 = settings: K-10 agar, 10^4 CFU, 37°C; for MIC: Escherichia coli, 10857, 18 h
Outline: as §2

Proteus vulgaris, 9416 = settings: K-10 agar, 10^4 CFU, 37°C, 18 hours; for MIC: read-out: M.I.C.
Outline: as §2

Escherichia coli, 10909 = settings: K-10 agar, 10^4 CFU, 37°C, 18 hours
Outline: as §2

Escherichia coli, 10896 = settings: K-10 agar, 10^4 CFU, 37°C, 18 hours
Outline: as §2

Shigella sonnei, 8449 = settings: K-10 agar, 10^4 CFU, 37°C; for MIC: Shigella sonnei, 8449, 18 h
Outline: as §2

[11] = system: Pseudomonas aeruginosa, 9545; settings: K-10 agar, 10^4 CFU, 37°C; for MIC: Pseudomonas aeruginosa, 9545, 18 h, read-out: M.I.C.
Outline: as §2

[12] = system: Klebsiella pneumoniae, 9527; settings: K-10 agar, 10^4 CFU, 37°C; for MIC: Klebsiella pneumoniae, 9527, 18 h, read-out: M.I.C.
Outline: as §2

Escherichia coli, 8294 = settings: K-10 agar, 10^4 CFU, 37°C; for MIC: Escherichia coli, 8294, 18 h
Outline: as §2

[13] = system: Staphylococcus aureus, 2399; settings: Staphylococcus aureus, 2399, K-10 agar, 10^4 CFU, 37°C, 18 hours; for MIC: Staphylococcus aureus, 2399, 18 h, read-out: M.I.C.
Outline: as §2

[14] = system: Staphylococcus aureus, 1276; settings: Staphylococcus aureus, 1276, K-10 agar, 10^4 CFU, 37°C, 18 hours; for MIC: read-out: M.I.C.
Outline: as §2

[15] = system: Enterobacter aerogenes, 10078; settings: Enterobacter aerogenes, 10078, K-10 agar, 10^4 CFU, 37°C, 18 hours; for MIC: Klebsiella aerogenes, 10078, 18 h, read-out: M.I.C.
Outline: as §2

Proteus rettgeri, 8479 = settings: K-10 agar, 10^4 CFU, 37°C, 18 hours; for MIC: Providencia rettgeri, read-out: M.I.C.
Outline: as §2

CON=C(C(=O)NC1C(=O)N(S(=O)(=O)O)C1C)c1csc(N)n1 (stereo not drawn) [Example 9, [3S-[3α(Z),4α]]-3-[[2-Amino-4-thiazolyl)-methoxyimino)acetyl]amino-4-methyl-2-oxo-1-azetidinesulfonic acid, potassium salt]
M.I.C. (Micrococcus luteus, 2495; 18 hours, potassium salt): 6.3 µg/mL
M.I.C. ([1]; 18 hours, potassium salt): 0.1 µg/mL
M.I.C. ([2]; 18 hours, potassium salt): 1.6 µg/mL
M.I.C. [3]: 100 µg/mL
M.I.C. (Salmonella typhosa, 1195; 18 hours): <0.05 µg/mL
M.I.C. [4]: 50 µg/mL
M.I.C. ([5]; 18 hours, potassium salt): 25 µg/mL
M.I.C. [6]: - (A dash (-) in the tables means that the compound tested did not show activity against the particular organism at 100 µg/ml)
M.I.C. ([7]; 18 hours, potassium salt): 0.2 µg/mL
M.I.C. (Proteus mirabilis, 3855; 18 hours, potassium salt): <0.05 µg/mL
M.I.C. [8]: 0.2 µg/mL
M.I.C. [9]: - (A dash (-) in the tables means that the compound tested did not show activity against the particular organism at 100 µg/ml)
M.I.C. [10]: 0.1 µg/mL
M.I.C. (Escherichia coli, 10857; 18 hours): <0.05 µg/mL
M.I.C. (Proteus vulgaris, 9416): <0.05 µg/mL
M.I.C. (Escherichia coli, 10909): <0.05 µg/mL
M.I.C. (Escherichia coli, 10896): 0.1 µg/mL
M.I.C. (Shigella sonnei, 8449; 18 hours): 0.1 µg/mL
M.I.C. ([11]; 18 hours, potassium salt): 0.4 µg/mL
M.I.C. ([12]; 18 hours, potassium salt): <0.05 µg/mL
M.I.C. (Escherichia coli, 8294; 18 hours): 0.1 µg/mL
M.I.C. ([13]; potassium salt): 50 µg/mL
M.I.C. [14]: 100 µg/mL
M.I.C. ([15]; potassium salt): 0.2 µg/mL
M.I.C. (Proteus rettgeri, 8479): <0.05 µg/mL

CC1C(NC(=O)C(NC(=O)N2CCN(N=Cc3ccco3)C2=O)c2ccccc2)C(=O)N1S(=O)(=O)O (stereo not drawn) [Example 11, [3S-[3α(R*),4β]]-3-[[[[[3-[(2-furanyl-methylene)amino]-2-oxo-1-imidazolidinyl]-carbonyl]amino]phenylacetyl]amino]-4-methyl-2-oxo-1-azetidinesulfonic acid, potassium salt]
MIC (Micrococcus luteus, 2495): 6.3 µg/mL
MIC [1]: 0.8 µg/mL
MIC [2]: 0.4 µg/mL
MIC [3]: 12.5 µg/mL
MIC (Salmonella typhosa, 1195): 0.2 µg/mL
MIC [4]: 25 µg/mL
MIC [5]: 12.5 µg/mL
MIC [6]: > 100 µg/mL
MIC [7]: 0.8 µg/mL
MIC (Proteus mirabilis, 3855): 0.4 µg/mL
MIC [8]: 0.8 µg/mL
MIC [9]: > 100 µg/mL
MIC [10]: 0.8 µg/mL
MIC (Escherichia coli, 10857): < 0.05 µg/mL
MIC (Proteus vulgaris, 9416): < 0.05 µg/mL
MIC (Escherichia coli, 10909): 0.1 µg/mL
MIC (Escherichia coli, 10896): 0.4 µg/mL
MIC (Shigella sonnei, 8449): 0.4 µg/mL
MIC [11]: 1.6 µg/mL
MIC [12]: 0.1 µg/mL
MIC (Escherichia coli, 8294): 1.6 µg/mL
MIC [13]: 25 µg/mL
MIC [14]: 25 µg/mL
MIC [15]: 1.6 µg/mL
MIC (Proteus rettgeri, 8479): 0.4 µg/mL

CCN1CCN(C(=O)NC(C(=O)NC2C(=O)N(S(=O)(=O)O)C2C)c2ccccc2)C(=O)C1=O (stereo not drawn) [Example 12, [3S-[3α(R*),4β]]-3-[[[[(4-ethyl-2,3-dioxo-1-piperazinyl)carbonyl]amino]phenylacetyl]-amino]-4-methyl-2-oxo-1-azetidinesulfonic acid, potassium salt]
MIC (Micrococcus luteus, 2495): 6.3 µg/mL
MIC [1]: 1.6 µg/mL
MIC [2]: 6.3 µg/mL
MIC [3]: 12.5 µg/mL
MIC (Salmonella typhosa, 1195): 0.2 µg/mL
MIC [4]: 50 µg/mL
MIC [5]: 12.5 µg/mL
MIC [6]: > 100 µg/mL
MIC [7]: 1.6 µg/mL
MIC (Proteus mirabilis, 3855): 0.4 µg/mL
MIC [8]: 1.6 µg/mL
MIC [9]: > 100 µg/mL
MIC [10]: 1.6 µg/mL
MIC (Escherichia coli, 10857): < 0.05 µg/mL
MIC (Proteus vulgaris, 9416): < 0.05 µg/mL
MIC (Escherichia coli, 10909): 0.1 µg/mL
MIC (Escherichia coli, 10896): 1.6 µg/mL
MIC (Shigella sonnei, 8449): 0.8 µg/mL
MIC [11]: 0.8 µg/mL
MIC [12]: 0.1 µg/mL
MIC (Escherichia coli, 8294): 1.6 µg/mL
MIC [13]: 50 µg/mL
MIC [14]: 25 µg/mL
MIC [15]: 3.1 µg/mL
MIC (Proteus rettgeri, 8479): 0.4 µg/mL
